Laboratory results: patent US10197560B2 (priority 2013, dated 2019)
“Also recorded” adds a separate entry of the source.

Tests used:
[1] = molecular target: T1, recombinant Rv3378c protein (Mycobacterium tuberculosis, UniProt P9WJ61); assay: Rv3378c enzymatic assays (tuberculosinyl transferase, HPLC-MS detection of 1-TbAd); assay type: biochemical, M. tuberculosis; conditions: pH 7.4
T1 construct: hexahistidine (His6) tag from pET-28b, thrombin-cleavable (N, cleaved yes); made in house; host or cells: E. coli BL21-CodonPlus, co-expressed with GroES/GroEL chaperones
T1 sequence (P9WJ61 1-296): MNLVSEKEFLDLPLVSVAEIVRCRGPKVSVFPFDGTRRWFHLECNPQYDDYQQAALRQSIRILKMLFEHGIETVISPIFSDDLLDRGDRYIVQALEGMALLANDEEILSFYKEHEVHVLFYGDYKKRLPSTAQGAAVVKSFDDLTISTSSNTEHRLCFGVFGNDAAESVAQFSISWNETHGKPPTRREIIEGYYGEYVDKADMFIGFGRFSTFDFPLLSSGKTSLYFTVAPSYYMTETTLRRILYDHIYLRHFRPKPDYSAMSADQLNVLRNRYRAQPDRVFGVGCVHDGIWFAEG

phagosomal acidification = conditions: synthetic tuberculosinols coupled to beads; reference (21); cited from earlier work

Molecule | product formation by Rv3378c from diterpene pyrophosphate substrate and adenosine [1] | effect on phagosomal acidification (phagosomal acidification)
CC(C)=CCC/C(C)=C/CC/C(C)=C/CC/C(C)=C/COP(=O)(O)OP(=O)(O)O [GGPP, geranylgeranyl pyrophosphate] | little or no product; also recorded: does not act on GGPP | 
C/C(=C\CO)CC[C@@]1(C)[C@@H]2CCCC(C)(C)C2=CC[C@@H]1C [tuberculosinols, tuberculosinol] |  | block phagosomal acidification
tuberculosinyl pyrophosphate [TbPP] | catalyzed the condensation of adenosine and TbPP to generate 1-TbAd | 
